Experimental data from US20160022675A1, “PROCESSES FOR PREPARING TETRAHYDROISOQUINOLINES” (BRISTOL-MYERS SQUIBB COMPANY, priority 2013, published 2016).

How the values were obtained:
adrenergic α1B receptor = molecular target: T1, adrenergic α1B receptor (Homo sapiens, UniProt P35368); experiment: Off-target activity at adrenergic α1B receptor; type: binding; details: off-target site
T1 sequence (P35368 1-520): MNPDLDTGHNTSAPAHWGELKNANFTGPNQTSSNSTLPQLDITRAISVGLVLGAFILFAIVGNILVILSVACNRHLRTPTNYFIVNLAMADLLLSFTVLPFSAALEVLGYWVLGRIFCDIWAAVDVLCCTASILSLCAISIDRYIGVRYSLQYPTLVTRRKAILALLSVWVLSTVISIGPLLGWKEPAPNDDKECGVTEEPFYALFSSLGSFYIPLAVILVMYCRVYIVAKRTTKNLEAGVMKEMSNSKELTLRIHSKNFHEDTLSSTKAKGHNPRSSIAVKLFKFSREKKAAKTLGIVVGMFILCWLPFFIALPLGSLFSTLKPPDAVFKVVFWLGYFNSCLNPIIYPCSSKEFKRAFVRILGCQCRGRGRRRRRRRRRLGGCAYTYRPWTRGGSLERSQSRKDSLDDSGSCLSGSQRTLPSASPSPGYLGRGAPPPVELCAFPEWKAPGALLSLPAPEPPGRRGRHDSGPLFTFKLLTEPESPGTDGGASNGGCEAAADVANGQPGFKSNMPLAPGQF

5-HT1A = molecular target: T2, 5-HT1A (Homo sapiens, UniProt P08908); experiment: Off-target activity at 5-HT1A; type: binding; details: off-target site; read-out: 5-HT1A inhibition constant Ki
T2 sequence (P08908 1-422): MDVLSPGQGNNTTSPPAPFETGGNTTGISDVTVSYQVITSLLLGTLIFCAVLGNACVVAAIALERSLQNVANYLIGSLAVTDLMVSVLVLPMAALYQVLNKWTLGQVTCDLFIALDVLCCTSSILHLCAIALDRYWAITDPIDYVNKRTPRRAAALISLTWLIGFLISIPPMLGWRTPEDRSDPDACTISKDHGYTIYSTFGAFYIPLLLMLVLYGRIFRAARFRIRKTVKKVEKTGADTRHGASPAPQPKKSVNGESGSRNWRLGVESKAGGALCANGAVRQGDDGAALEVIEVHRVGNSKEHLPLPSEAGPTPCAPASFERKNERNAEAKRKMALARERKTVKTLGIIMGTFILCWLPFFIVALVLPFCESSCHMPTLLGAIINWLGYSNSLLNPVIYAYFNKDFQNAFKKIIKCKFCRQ

adrenergic α1A receptor = molecular target: T3, adrenergic α1A receptor (Homo sapiens, UniProt P35348); experiment: Off-target activity at adrenergic α1A receptor; type: binding; details: off-target site
T3 sequence (P35348 1-466): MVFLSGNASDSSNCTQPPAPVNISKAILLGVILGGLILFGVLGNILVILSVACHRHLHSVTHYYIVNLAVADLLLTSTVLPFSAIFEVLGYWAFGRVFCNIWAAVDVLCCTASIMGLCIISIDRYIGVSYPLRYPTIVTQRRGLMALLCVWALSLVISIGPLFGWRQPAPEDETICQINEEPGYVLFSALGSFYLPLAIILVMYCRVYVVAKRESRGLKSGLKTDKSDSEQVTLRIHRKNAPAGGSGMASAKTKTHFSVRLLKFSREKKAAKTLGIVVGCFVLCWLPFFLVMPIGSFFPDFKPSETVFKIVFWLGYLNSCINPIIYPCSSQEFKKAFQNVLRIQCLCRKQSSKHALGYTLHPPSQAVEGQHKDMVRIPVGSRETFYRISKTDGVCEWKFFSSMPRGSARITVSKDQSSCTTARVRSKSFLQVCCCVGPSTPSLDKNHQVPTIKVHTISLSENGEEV

NET = NET (Homo sapiens, UniProt P23975); experiment: Competition binding, membranes from HEK cells overexpressing NET; design: expressed in transfected cells; host or cells: HEK cells (membranes); details: radioligand at Kd concentration; HEK cell membranes
Chain of NET (P23975 whole entry): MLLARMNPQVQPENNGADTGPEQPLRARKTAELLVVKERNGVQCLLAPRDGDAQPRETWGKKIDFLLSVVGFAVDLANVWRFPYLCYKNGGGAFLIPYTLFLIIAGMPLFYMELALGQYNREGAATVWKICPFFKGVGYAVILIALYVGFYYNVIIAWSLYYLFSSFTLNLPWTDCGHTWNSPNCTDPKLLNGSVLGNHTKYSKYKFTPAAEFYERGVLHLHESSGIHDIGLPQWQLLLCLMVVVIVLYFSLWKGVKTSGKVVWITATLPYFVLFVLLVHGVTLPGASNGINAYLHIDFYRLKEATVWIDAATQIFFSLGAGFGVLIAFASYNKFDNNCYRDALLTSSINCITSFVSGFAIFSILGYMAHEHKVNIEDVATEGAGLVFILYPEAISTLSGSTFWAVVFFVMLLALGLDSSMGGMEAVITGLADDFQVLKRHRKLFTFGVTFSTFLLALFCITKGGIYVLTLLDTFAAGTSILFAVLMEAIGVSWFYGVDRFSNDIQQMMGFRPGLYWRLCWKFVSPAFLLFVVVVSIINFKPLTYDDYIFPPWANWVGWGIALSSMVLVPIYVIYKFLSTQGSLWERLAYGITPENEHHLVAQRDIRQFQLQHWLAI
Protocol: (§1) Competition binding experiments were performed to determine the in vitro binding potencies (IC50 values) of Compound 1-(4S) for SERT, DAT, and NET. Membranes prepared from human embryonic kidney (HEK) cells overexpressing each transporter were employed. Radioligands were used at their respective affinity constant (Kd) concentrations for each transporter to enable direct comparisons of the IC50 values between assays.

DAT = DAT (Homo sapiens, UniProt Q01959); experiment: Competition binding, membranes from HEK cells overexpressing DAT; design: expressed in transfected cells; host or cells: HEK cells (membranes); details: radioligand at Kd concentration; HEK cell membranes
Chain of DAT (Q01959 whole entry): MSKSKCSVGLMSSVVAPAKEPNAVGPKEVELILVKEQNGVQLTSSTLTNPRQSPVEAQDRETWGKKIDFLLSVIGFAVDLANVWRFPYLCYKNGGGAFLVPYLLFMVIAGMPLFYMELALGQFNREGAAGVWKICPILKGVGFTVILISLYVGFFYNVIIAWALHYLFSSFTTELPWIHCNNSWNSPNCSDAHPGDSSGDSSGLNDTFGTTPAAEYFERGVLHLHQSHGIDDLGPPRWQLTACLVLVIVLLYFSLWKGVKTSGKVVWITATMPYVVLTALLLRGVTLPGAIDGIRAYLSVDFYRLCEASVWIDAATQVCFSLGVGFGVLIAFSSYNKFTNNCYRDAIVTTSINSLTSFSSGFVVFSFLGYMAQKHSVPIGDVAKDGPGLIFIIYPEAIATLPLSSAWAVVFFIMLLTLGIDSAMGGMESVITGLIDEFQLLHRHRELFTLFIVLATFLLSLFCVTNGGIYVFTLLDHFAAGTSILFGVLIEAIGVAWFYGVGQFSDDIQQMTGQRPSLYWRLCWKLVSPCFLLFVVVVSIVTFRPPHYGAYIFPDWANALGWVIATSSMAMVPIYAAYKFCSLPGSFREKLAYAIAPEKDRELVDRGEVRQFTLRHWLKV
Protocol: as §1

SERT = SERT (Homo sapiens, UniProt P31645); experiment: Competition binding, membranes from HEK cells overexpressing SERT; design: expressed in transfected cells; host or cells: HEK cells (membranes); details: radioligand at Kd concentration; HEK cell membranes; read-out: SERT binding IC50
Chain of SERT (P31645 whole entry): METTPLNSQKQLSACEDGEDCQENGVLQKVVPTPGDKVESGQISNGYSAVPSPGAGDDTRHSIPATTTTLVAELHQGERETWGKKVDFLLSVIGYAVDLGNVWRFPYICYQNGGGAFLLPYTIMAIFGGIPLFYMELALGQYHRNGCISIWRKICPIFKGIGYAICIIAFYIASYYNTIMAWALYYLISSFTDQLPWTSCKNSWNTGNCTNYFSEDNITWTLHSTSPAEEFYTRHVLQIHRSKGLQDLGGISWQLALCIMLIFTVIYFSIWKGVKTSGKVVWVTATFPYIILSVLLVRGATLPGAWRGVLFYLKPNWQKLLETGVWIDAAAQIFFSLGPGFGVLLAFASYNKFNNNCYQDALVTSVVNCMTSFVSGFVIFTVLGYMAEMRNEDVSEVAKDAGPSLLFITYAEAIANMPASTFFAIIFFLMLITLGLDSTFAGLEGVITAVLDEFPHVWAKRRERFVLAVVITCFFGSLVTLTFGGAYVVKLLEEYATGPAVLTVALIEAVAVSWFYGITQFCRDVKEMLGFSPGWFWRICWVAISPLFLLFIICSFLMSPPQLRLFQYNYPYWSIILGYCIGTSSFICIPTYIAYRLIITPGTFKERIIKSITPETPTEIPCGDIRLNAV
Protocol: as §1

adrenergic α1D receptor = molecular target: T4, adrenergic α1D receptor (Homo sapiens, UniProt P25100); experiment: Off-target activity at adrenergic α1D receptor; type: binding; details: off-target site
T4 sequence (P25100 1-572): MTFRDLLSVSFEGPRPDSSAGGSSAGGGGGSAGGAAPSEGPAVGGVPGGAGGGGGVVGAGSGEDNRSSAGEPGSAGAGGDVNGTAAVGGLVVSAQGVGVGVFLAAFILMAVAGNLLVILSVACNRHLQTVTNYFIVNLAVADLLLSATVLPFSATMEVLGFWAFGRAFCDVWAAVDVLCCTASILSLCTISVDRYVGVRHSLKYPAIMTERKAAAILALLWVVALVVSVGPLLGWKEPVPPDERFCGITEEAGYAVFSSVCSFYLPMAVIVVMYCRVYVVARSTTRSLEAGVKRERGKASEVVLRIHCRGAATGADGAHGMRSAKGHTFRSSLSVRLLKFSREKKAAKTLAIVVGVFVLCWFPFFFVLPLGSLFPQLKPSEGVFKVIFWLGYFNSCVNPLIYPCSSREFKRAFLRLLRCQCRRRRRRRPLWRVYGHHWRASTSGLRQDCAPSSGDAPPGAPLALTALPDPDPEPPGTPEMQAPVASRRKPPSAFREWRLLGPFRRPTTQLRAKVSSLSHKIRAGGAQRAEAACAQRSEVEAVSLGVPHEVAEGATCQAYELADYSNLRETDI

Nc1ccc(-c2ccc3c(c2)CNC[C@H]3c2ccc3ccccc3c2)nn1 [Compound 31]
Ki (adrenergic α1B receptor): 260 nM
Ki (5-HT1A): 99 nM
Ki (adrenergic α1A receptor): 410 nM
IC50 (NET): 26.7 ± 3 nM
IC50 (DAT): 6.19 ± 1 nM
IC50 (SERT): 0.21 ± 0.04 nM
Ki (adrenergic α1D receptor): 480 nM
